Assay results from the supplement of paper PMC10307832.

How the values were obtained:
Test in all cases: relative viability (nuclei count vs DMSO), 5 days (fraction); higher = more cells survive
[1] = compound: C[C@]12O[C@H](C[C@]1(O)CO)n1c3ccccc3c3c4c(c5c6ccccc6n2c5c31)CNC4=O [Lestaurtinib] + CCNC(=O)c1noc(-c2cc(C(C)C)c(O)cc2O)c1-c1ccc(CN2CCOCC2)cc1 [Luminespib] (partner 0.01 µM)
Method in brief: (§1)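 For relative viability, nuclei counts in treated wells were divided by those in vehicle wells. Lung cancer cell lines had been pin-tool dosed in 1536-well plates the day after seeding and cultured for 5 days, then fixed and stained in one step (final 0.05% Triton X-100, 1% formaldehyde, 1 ug/ml Hoechst) and imaged at 4×. Doses were one drug alone or a fixed anchor-drug dose plus five library-drug doses (not always all listed) in √10 steps, and values are duplicate-plate medians.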

[2] = compound: C[C@]12O[C@H](C[C@]1(O)CO)n1c3ccccc3c3c4c(c5c6ccccc6n2c5c31)CNC4=O [Lestaurtinib] + C[C@@H](Oc1cc(-c2cnn(C3CCNCC3)c2)cnc1N)c1c(Cl)ccc(F)c1Cl [Crizotinib] (partner 1 µM)
Method in brief: as §1

TPCA-1 + Crizotinib = compound: C1=CC(=CC=C1C2=CC(=C(S2)NC(=O)N)C(=O)N)F [TPCA-1] + C[C@@H](Oc1cc(-c2cnn(C3CCNCC3)c2)cnc1N)c1c(Cl)ccc(F)c1Cl [Crizotinib] (partner 1 µM)
Method in brief: as §1

[3] = compound: C[C@]12O[C@H](C[C@]1(O)CO)n1c3ccccc3c3c4c(c5c6ccccc6n2c5c31)CNC4=O [Lestaurtinib] + Nc1nc2[nH]cc(CCc3ccc(C(=O)N[C@@H](CCC(=O)O)C(=O)O)cc3)c2c(=O)[nH]1 [Pemetrexed] (partner 0.2 µM)
Method in brief: as §1

Cell Line	relative viability ([1]; first compound 0.005 µM)	relative viability ([1]; first compound 0.01581 µM)	relative viability ([1]; first compound 0.05 µM)	relative viability ([1]; first compound 0.1581 µM)	relative viability ([1]; first compound 0.5 µM)	relative viability ([2]; first compound 0.005 µM)	relative viability ([2]; first compound 0.01581 µM)	relative viability ([2]; first compound 0.05 µM)	relative viability ([2]; first compound 0.1581 µM)	relative viability ([2]; first compound 0.5 µM)	relative viability (TPCA-1 + Crizotinib; first compound 0.04 µM)	relative viability (TPCA-1 + Crizotinib; first compound 0.1265 µM)	relative viability (TPCA-1 + Crizotinib; first compound 0.4 µM)	relative viability (TPCA-1 + Crizotinib; first compound 1.265 µM)	relative viability (TPCA-1 + Crizotinib; first compound 4 µM)	relative viability ([3]; first compound 0.005 µM)	relative viability ([3]; first compound 0.01581 µM)	relative viability ([3]; first compound 0.05 µM)	relative viability ([3]; first compound 0.1581 µM)	relative viability ([3]; first compound 0.5 µM)
HCC-44	1.14	1.22	0.623	0.873	0.308	0.878	0.822	0.685	0.929	0.607	0.798	0.708	0.76	0.681	0.644	0.635	0.685	0.491	0.648	0.377
HCC-78	–	–	–	–	–	0.318	0.396	0.318	0.287	0.267	0.362	0.341	0.345	0.338	0.307	0.9	0.918	0.851	1	0.903
HCC-366	–	–	–	–	–	0.711	0.649	0.418	0.758	0.219	0.562	0.644	0.588	0.472	0.258	0.158	0.168	0.157	0.163	0.104
HCC-827	0.332	0.505	0.344	0.289	0.33	0.911	1.08	0.85	0.71	0.335	0.948	0.924	0.899	0.83	0.567	0.234	0.234	0.26	0.28	0.196
HOP-62	0.9	1.07	0.855	0.913	0.274	0.905	0.919	0.972	0.721	0.18	0.974	0.865	0.974	1.05	0.641	0.269	0.322	0.309	0.339	0.22
IA-LM	–	–	–	–	–	0.862	1.06	1.14	0.921	0.415	0.767	0.762	0.985	0.667	0.657	–	–	–	–	–
LC-2-ad	1.1	1.21	0.799	0.617	0.372	0.467	0.325	0.433	0.366	0.251	0.441	0.427	0.464	0.413	0.263	0.258	0.277	0.252	0.258	0.186
LCLC-97TM1	0.71	0.678	0.363	0.62	0.233	0.382	0.293	0.241	0.259	0.149	0.347	0.325	0.568	0.28	0.15	–	0.183	0.149	0.146	0.132
LCLC-103H	1.04	1.08	0.767	0.501	0.34	1.11	1.02	0.867	0.761	0.593	1.12	1.03	0.96	1.03	1.03	0.418	0.484	0.469	0.472	0.412
